Results as given in the kinase profiling compilation of Christmann-Franck et al. (2016).

What was measured:
Assay in all cases: radiometric filter-binding kinase assay
AURKB (human) = AURKB (human) (UniProt Q96GD4)
CHEK2 (human) = CHEK2 (human) (UniProt O96017)
MINK1 (human) = MINK1 (human) (UniProt Q8N4C8)
MAPK8 (human) = MAPK8 (human) (UniProt P45983)
MAP2K1 (human) = MAP2K1 (human) (UniProt Q02750)
PKN2 (human) = PKN2 (human) (UniProt Q16513)
PAK6 (human) = PAK6 (human) (UniProt Q9NQU5)
[1] = system: AKT1 (human), P31749 [S473D]
Chain of AKT1 (human), P31749 [S473D] (P31749 whole entry S473D, looked up): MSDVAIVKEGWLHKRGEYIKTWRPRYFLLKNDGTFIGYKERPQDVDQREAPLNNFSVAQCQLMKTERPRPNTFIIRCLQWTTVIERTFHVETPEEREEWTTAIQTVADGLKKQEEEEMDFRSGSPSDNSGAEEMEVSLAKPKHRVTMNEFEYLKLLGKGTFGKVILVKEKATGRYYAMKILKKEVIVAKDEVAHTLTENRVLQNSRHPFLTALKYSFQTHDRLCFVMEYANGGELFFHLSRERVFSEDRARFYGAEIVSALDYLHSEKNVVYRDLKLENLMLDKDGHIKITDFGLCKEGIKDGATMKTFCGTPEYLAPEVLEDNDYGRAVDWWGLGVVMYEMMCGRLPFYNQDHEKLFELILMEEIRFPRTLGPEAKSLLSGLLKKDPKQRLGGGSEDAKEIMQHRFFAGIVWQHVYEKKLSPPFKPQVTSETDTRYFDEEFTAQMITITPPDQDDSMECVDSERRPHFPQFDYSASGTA

CSK (human) = CSK (human) (UniProt P41240)
MAP3K7 TAB1 (human) = MAP3K7 TAB1 (human) (UniProt Q15750+O43318)
MAPK10 (human) = MAPK10 (human) (UniProt P53779)
Chain of MAPK10 (human) (P53779 whole entry, looked up): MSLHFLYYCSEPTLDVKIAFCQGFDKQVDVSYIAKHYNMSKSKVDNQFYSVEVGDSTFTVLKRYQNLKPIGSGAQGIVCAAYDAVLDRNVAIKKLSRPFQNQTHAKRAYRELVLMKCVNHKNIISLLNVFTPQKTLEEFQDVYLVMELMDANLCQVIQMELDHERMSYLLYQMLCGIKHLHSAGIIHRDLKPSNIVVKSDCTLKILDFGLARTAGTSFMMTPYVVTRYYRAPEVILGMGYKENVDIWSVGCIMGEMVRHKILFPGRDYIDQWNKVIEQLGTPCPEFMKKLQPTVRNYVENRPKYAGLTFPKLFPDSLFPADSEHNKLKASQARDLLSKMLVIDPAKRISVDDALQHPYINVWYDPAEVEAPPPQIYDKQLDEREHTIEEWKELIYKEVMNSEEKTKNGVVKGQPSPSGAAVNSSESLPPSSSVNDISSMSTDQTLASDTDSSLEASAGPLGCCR

IKBKB (human) = IKBKB (human) (UniProt O14920)
MARK2 (human) = MARK2 (human) (UniProt Q7KZI7)
Chain of MARK2 (human) (Q7KZI7 whole entry, looked up): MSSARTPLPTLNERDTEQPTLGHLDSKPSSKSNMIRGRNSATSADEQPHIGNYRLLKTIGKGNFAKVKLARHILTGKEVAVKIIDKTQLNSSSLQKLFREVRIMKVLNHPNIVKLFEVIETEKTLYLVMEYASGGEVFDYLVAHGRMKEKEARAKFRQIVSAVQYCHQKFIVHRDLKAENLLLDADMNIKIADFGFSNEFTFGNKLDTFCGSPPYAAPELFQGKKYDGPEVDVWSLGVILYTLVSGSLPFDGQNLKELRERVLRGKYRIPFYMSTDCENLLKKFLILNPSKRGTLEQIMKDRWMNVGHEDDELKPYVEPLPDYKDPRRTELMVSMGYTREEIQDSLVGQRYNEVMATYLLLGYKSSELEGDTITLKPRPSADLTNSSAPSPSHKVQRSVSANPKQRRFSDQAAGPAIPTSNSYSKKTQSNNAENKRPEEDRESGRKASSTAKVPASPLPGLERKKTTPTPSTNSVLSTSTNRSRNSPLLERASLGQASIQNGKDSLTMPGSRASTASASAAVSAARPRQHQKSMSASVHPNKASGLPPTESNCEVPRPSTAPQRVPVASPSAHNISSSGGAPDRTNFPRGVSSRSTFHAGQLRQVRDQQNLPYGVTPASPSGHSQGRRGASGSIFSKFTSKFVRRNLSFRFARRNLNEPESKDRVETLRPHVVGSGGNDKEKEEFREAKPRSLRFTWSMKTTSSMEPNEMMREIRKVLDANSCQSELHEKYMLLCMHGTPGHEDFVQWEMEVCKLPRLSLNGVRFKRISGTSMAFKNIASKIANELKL

DYRK3 (human) = DYRK3 (human) (UniProt O43781)
[2] = system: PAK2 (human), Q13177 [T402E]
TAOK1 (human) = TAOK1 (human) (UniProt Q7L7X3)
RPS6KA3 KD1 KD2 (human) = RPS6KA3 KD1 KD2 (human) (UniProt P51812)
MAP3K11 (human) = MAP3K11 (human) (UniProt Q16584)
NUAK1 (human) = NUAK1 (human) (UniProt O60285)
EPHA4 (human) = EPHA4 (human) (UniProt P54764)
Chain of EPHA4 (human) (P54764 whole entry, looked up): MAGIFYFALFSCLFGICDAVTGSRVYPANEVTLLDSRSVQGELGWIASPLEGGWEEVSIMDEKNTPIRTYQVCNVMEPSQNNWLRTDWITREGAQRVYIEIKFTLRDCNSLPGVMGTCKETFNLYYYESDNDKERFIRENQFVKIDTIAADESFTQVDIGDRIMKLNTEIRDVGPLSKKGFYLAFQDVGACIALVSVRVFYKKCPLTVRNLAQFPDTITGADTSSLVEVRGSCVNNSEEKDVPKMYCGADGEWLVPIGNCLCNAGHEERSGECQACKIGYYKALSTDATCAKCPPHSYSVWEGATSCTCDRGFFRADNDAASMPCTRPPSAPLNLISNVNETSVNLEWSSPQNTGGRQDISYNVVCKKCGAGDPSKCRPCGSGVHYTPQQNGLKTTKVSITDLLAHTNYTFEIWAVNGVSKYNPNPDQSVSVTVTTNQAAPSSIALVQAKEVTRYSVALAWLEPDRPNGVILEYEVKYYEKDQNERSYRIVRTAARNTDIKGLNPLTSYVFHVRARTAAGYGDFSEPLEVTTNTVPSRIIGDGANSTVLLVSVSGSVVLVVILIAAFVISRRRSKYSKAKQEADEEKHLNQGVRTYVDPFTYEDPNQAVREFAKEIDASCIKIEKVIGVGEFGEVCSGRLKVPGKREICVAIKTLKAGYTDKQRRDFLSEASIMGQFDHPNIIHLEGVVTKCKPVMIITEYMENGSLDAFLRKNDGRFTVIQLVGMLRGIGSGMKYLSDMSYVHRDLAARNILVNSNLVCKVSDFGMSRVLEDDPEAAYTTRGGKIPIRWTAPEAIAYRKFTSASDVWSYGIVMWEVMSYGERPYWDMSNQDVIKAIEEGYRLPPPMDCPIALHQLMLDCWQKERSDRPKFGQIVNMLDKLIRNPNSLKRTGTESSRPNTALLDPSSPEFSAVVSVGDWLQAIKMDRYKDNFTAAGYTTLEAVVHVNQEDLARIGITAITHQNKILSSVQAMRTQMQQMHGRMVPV

LCK (mouse) = settings: accession and sequence are those of the human protein
EPHB2 (human) = EPHB2 (human) (UniProt P29323)
SRC (human) = SRC (human) (UniProt P12931)
CaMK1 (human) = CaMK1 (human) (UniProt Q14012)
Chain of CaMK1 (human) (Q14012 whole entry, looked up): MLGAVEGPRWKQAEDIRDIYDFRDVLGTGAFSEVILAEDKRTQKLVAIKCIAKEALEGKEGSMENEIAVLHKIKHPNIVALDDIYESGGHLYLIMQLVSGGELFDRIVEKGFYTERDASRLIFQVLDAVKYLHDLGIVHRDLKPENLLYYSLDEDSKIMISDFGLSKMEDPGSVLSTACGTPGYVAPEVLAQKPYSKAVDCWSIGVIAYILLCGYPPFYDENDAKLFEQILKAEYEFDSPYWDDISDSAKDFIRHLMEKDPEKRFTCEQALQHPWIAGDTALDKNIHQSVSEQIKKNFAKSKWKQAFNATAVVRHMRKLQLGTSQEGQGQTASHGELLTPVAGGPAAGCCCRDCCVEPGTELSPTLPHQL

MST4 (human) = MST4 (human) (UniProt Q9P289)
GCK (human) = GCK (human) (UniProt Q12851)
Chain of GCK (human) (Q12851 whole entry, looked up): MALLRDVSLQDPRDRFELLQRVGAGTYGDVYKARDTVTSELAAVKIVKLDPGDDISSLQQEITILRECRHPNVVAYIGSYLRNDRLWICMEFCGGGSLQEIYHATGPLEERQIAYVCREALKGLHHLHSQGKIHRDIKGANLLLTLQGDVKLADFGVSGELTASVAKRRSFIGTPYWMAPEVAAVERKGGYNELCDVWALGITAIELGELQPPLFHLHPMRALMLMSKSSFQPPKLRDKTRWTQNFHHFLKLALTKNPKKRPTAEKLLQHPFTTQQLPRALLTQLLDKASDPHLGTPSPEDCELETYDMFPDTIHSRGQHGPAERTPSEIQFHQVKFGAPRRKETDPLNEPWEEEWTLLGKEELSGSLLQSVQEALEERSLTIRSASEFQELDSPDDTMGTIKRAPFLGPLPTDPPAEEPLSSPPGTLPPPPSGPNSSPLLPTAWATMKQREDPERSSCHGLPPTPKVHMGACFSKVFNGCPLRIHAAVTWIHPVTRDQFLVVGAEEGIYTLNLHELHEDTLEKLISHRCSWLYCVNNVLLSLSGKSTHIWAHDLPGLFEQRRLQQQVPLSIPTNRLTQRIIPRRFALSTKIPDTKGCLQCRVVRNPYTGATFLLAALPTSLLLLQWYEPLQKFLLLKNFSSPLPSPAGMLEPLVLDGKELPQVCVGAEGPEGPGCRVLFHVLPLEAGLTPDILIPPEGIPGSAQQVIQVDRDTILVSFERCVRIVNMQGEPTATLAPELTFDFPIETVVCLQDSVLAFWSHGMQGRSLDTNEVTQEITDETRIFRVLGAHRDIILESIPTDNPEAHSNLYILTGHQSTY

PAK4 (human) = PAK4 (human) (UniProt O96013)
ROCK2 (rat) = settings: accession and sequence are those of the human protein
TBK1 (human) = TBK1 (human) (UniProt Q9UHD2)
CDK2 CCNA2 (human) = CDK2 CCNA2 (human) (UniProt P20248+P24941)
TTK (human) = TTK (human) (UniProt P33981)
EPHB3 (human) = EPHB3 (human) (UniProt P54753)
CHEK1 (human) = CHEK1 (human) (UniProt O14757)
EPHA2 (human) = EPHA2 (human) (UniProt P29317)
EPHB1 (human) = EPHB1 (human) (UniProt P54762)
MYLK (human) = MYLK (human) (UniProt Q15746)

Chain of PAK6 (human) (Q9NQU5 whole entry, looked up): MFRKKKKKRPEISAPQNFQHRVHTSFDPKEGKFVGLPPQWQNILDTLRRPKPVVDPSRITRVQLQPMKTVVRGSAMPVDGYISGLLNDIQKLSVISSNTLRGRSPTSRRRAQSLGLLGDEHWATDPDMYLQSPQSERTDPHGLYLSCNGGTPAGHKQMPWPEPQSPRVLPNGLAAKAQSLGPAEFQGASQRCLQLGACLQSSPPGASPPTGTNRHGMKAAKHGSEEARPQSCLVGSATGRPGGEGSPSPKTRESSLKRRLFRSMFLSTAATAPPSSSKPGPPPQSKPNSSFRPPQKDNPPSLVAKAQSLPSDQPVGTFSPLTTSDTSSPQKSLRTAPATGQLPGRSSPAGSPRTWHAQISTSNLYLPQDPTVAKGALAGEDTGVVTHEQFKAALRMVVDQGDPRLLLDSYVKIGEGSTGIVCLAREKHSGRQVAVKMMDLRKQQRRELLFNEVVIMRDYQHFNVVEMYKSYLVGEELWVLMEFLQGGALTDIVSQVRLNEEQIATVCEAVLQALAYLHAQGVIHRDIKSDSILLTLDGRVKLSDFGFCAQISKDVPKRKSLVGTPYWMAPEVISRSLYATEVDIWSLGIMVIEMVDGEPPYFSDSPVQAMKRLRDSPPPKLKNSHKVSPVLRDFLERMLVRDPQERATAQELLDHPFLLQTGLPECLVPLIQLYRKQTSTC
Chain of AURKB (human) (Q96GD4 whole entry, looked up): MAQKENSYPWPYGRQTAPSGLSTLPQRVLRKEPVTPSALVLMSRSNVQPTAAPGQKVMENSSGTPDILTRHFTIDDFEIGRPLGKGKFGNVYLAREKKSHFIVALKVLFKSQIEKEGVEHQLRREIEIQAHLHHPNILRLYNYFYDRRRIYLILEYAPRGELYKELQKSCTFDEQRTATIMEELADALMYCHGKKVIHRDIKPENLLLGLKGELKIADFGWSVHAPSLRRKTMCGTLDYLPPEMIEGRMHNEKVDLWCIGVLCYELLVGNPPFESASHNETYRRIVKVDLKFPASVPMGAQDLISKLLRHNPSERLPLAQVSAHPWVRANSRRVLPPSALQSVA

residual activity (AURKB (human); compound 0.1 µM): 108%
residual activity (AURKB (human); compound 1.0 µM): 86%
residual activity (AURKB (human); compound 10.0 µM): 10%
residual activity (CHEK2 (human); compound 0.1 µM): 130%
residual activity (CHEK2 (human); compound 1.0 µM): 116%
residual activity (CHEK2 (human); compound 10.0 µM): 61%
residual activity (MINK1 (human); compound 0.1 µM): 94%
residual activity (MINK1 (human); compound 1.0 µM): 88%
residual activity (MINK1 (human); compound 10.0 µM): 81%
residual activity (MAPK8 (human); compound 0.1 µM): 103%
residual activity (MAPK8 (human); compound 1.0 µM): 102%
residual activity (MAPK8 (human); compound 10.0 µM): 110%
residual activity (MAP2K1 (human); compound 0.1 µM): 100%
residual activity (MAP2K1 (human); compound 10.0 µM): 111%
residual activity (PKN2 (human); compound 0.1 µM): 103%
residual activity (PKN2 (human); compound 1.0 µM): 95%
residual activity (PKN2 (human); compound 10.0 µM): 104%
residual activity (PAK6 (human); compound 0.1 µM): 125%
residual activity (PAK6 (human); compound 1.0 µM): 126%
residual activity (PAK6 (human); compound 10.0 µM): 105%
residual activity ([1]; compound 0.1 µM): 118%
residual activity ([1]; compound 1.0 µM): 99%
residual activity ([1]; compound 10.0 µM): 105%
residual activity (CSK (human); compound 0.1 µM): 112%
residual activity (CSK (human); compound 1.0 µM): 109%
residual activity (CSK (human); compound 10.0 µM): 111%
residual activity (MAP3K7 TAB1 (human); compound 0.1 µM): 114%
residual activity (MAP3K7 TAB1 (human); compound 1.0 µM): 104%
residual activity (MAP3K7 TAB1 (human); compound 10.0 µM): 109%
residual activity (MAPK10 (human); compound 0.1 µM): 122%
residual activity (MAPK10 (human); compound 1.0 µM): 125%
residual activity (MAPK10 (human); compound 10.0 µM): 136%
residual activity (IKBKB (human); compound 0.1 µM): 103%
residual activity (IKBKB (human); compound 1.0 µM): 103%
residual activity (IKBKB (human); compound 10.0 µM): 72%
residual activity (MARK2 (human); compound 0.1 µM): 109%
residual activity (MARK2 (human); compound 1.0 µM): 111%
residual activity (MARK2 (human); compound 10.0 µM): 118%
residual activity (DYRK3 (human); compound 0.1 µM): 103%
residual activity (DYRK3 (human); compound 1.0 µM): 101%
residual activity (DYRK3 (human); compound 10.0 µM): 78%
residual activity ([2]; compound 0.1 µM): 100%
residual activity ([2]; compound 1.0 µM): 96%
residual activity ([2]; compound 10.0 µM): 86%
residual activity (TAOK1 (human); compound 0.1 µM): 103%
residual activity (TAOK1 (human); compound 1.0 µM): 113%
residual activity (TAOK1 (human); compound 10.0 µM): 120%
residual activity (RPS6KA3 KD1 KD2 (human); compound 0.1 µM): 114%
residual activity (RPS6KA3 KD1 KD2 (human); compound 1.0 µM): 98%
residual activity (RPS6KA3 KD1 KD2 (human); compound 10.0 µM): 74%
residual activity (MAP3K11 (human); compound 0.1 µM): 110%
residual activity (MAP3K11 (human); compound 1.0 µM): 110%
residual activity (MAP3K11 (human); compound 10.0 µM): 97%
residual activity (NUAK1 (human); compound 0.1 µM): 112%
residual activity (NUAK1 (human); compound 1.0 µM): 121%
residual activity (NUAK1 (human); compound 10.0 µM): 110%
residual activity (EPHA4 (human); compound 0.1 µM): 107%
residual activity (EPHA4 (human); compound 1.0 µM): 98%
residual activity (EPHA4 (human); compound 10.0 µM): 109%
residual activity (LCK (mouse); compound 1.0 µM): 111%
residual activity (LCK (mouse); compound 10.0 µM): 129%
residual activity (EPHB2 (human); compound 0.1 µM): 116%
residual activity (EPHB2 (human); compound 1.0 µM): 102%
residual activity (EPHB2 (human); compound 10.0 µM): 105%
residual activity (SRC (human); compound 0.1 µM): 114%
residual activity (SRC (human); compound 1.0 µM): 113%
residual activity (CaMK1 (human); compound 0.1 µM): 92%
residual activity (CaMK1 (human); compound 1.0 µM): 84%
residual activity (CaMK1 (human); compound 10.0 µM): 30%
residual activity (MST4 (human); compound 0.1 µM): 97%
residual activity (MST4 (human); compound 1.0 µM): 95%
residual activity (GCK (human); compound 0.1 µM): 98%
residual activity (GCK (human); compound 1.0 µM): 106%
residual activity (GCK (human); compound 10.0 µM): 68%
residual activity (PAK4 (human); compound 0.1 µM): 94%
residual activity (PAK4 (human); compound 1.0 µM): 104%
residual activity (PAK4 (human); compound 10.0 µM): 104%
residual activity (ROCK2 (rat); compound 0.1 µM): 103%
residual activity (ROCK2 (rat); compound 1.0 µM): 107%
residual activity (ROCK2 (rat); compound 10.0 µM): 112%
residual activity (TBK1 (human); compound 1.0 µM): 107%
residual activity (TBK1 (human); compound 10.0 µM): 93%
residual activity (CDK2 CCNA2 (human); compound 0.1 µM): 108%
residual activity (CDK2 CCNA2 (human); compound 1.0 µM): 113%
residual activity (CDK2 CCNA2 (human); compound 10.0 µM): 117%
residual activity (TTK (human); compound 0.1 µM): 111%
residual activity (TTK (human); compound 1.0 µM): 112%
residual activity (TTK (human); compound 10.0 µM): 94%
residual activity (EPHB3 (human); compound 0.1 µM): 114%
residual activity (EPHB3 (human); compound 1.0 µM): 104%
residual activity (EPHB3 (human); compound 10.0 µM): 97%
residual activity (CHEK1 (human); compound 0.1 µM): 109%
residual activity (CHEK1 (human); compound 1.0 µM): 114%
residual activity (CHEK1 (human); compound 10.0 µM): 117%
residual activity (EPHA2 (human); compound 0.1 µM): 94%
residual activity (EPHA2 (human); compound 1.0 µM): 93%
residual activity (EPHA2 (human); compound 10.0 µM): 96%
residual activity (EPHB1 (human); compound 0.1 µM): 105%
residual activity (EPHB1 (human); compound 1.0 µM): 101%
residual activity (EPHB1 (human); compound 10.0 µM): 107%
residual activity (MYLK (human); compound 0.1 µM): 113%
residual activity (MYLK (human); compound 1.0 µM): 114%
residual activity (MYLK (human); compound 10.0 µM): 114%
Structure (SMILES): CC1=C(CO)C(=O)O[C@@H]([C@@H](C)[C@H]2CC[C@H]3[C@@H]4C[C@H]5O[C@]56[C@@H](O)C=CC(=O)[C@]6(C)C4CC[C@]23C)C1 (stereo partly drawn)
